Measured values from patent US6054435A, “6-O-substituted macrolides having antibacterial activity” (priority 1999, dated 2000).
≈ marks a conversion by molar mass, not a printed value.

Assays:
Test in all cases: in vitro antibacterial activity (MIC), agar dilution
Format in all cases: cell-based
Candida albicans CCH 442 = conditions: organism code TT; BHI agar, 35-37° C., 20 to 24 hours; unit assumed
Method in brief: (§1)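 Agar dilution in BHI agar, twelve successive compound dilutions. Inoculum 1:100, or 1:10 for slow-growing strains (e.g. Streptococcus), replicator-spotted. Read by eye; MIC = lowest concentration with no growth, slight haze or sparsely isolated colonies relative to growth control.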

[1] = system: Enterococcus faecium ATCC 8043; conditions: organism code II; BHI agar, 35-37° C., 20 to 24 hours; unit assumed
Method in brief: as §1

Escherichia coli DC-2 = conditions: organism code SS; BHI agar, 35-37° C., 20 to 24 hours; unit assumed
Method in brief: as §1

Escherichia coli JUHL = conditions: organism code QQ; BHI agar, 35-37° C., 20 to 24 hours; unit assumed
Method in brief: as §1

Escherichia coli SS = conditions: organism code RR; BHI agar, 35-37° C., 20 to 24 hours; unit assumed
Method in brief: as §1

[2] = system: Haemophilis Influenzae DILL AMP R; conditions: organism code WW; BHI agar, 35-37° C., 20 to 24 hours; unit assumed
Method in brief: as §1

[3] = system: Micrococcus luteus ATCC 4698; conditions: organism code PP; BHI agar, 35-37° C., 20 to 24 hours; unit assumed
Method in brief: (§2)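 Antibacterial MIC determined by agar dilution in BHI agar with twelve successive concentrations; controls comprised compound-free plates and a same-class reference antibiotic. MIC: lowest concentration giving no growth, slight haze or sparsely isolated colonies.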

[4] = system: Micrococcus luteus ATCC 9341; conditions: organism code OO; BHI agar, 35-37° C., 20 to 24 hours; unit assumed
Method in brief: as §2

[5] = system: Mycobacterium smegmatis ATCC 114; conditions: organism code UU; BHI agar, 35-37° C., 20 to 24 hours; unit assumed
Method in brief: as §1

[6] = system: Nocardia Asteroides ATCC9970; conditions: organism code VV; BHI agar, 35-37° C., 20 to 24 hours; unit assumed
Method in brief: as §1

[7] = system: Staphylococcus aureus 1775; conditions: organism code GG; BHI agar, 35-37° C., 20 to 24 hours; unit assumed
Method in brief: as §1

[8] = system: Staphylococcus aureus A-5278; conditions: organism code CC; BHI agar, 35-37° C., 20 to 24 hours; unit assumed
Method in brief: as §1

[9] = system: Staphylococcus aureus A5177; conditions: organism code BB; BHI agar, 35-37° C., 20 to 24 hours; unit assumed
Method in brief: as §1

[10] = system: Staphylococcus aureus ATCC 6538P; conditions: organism code AA; BHI agar, 35-37° C., 20 to 24 hours; unit assumed
Method in brief: as §1

[11] = system: Staphylococcus aureus CMX 553; conditions: organism code FF; BHI agar, 35-37° C., 20 to 24 hours; unit assumed
Method in brief: as §1

[12] = system: Staphylococcus aureus CMX 642A; conditions: organism code DD; BHI agar, 35-37° C., 20 to 24 hours; unit assumed
Method in brief: as §1

[13] = system: Staphylococcus aureus NCTC10649M; conditions: organism code EE; BHI agar, 35-37° C., 20 to 24 hours; unit assumed
Method in brief: as §1

[14] = system: Staphylococcus epidermidis 3519; conditions: organism code HH; BHI agar, 35-37° C., 20 to 24 hours; unit assumed
Method in brief: as §1

[15] = system: Streptococcus Pneumonia 5649; conditions: organism code ZZA; BHI agar, 35-37° C., 20 to 24 hours; unit assumed
Method in brief: as §1

[16] = system: Streptococcus Pneumonia 5979; conditions: organism code ZZ; BHI agar, 35-37° C., 20 to 24 hours; unit assumed
Method in brief: as §1

[17] = system: Streptococcus Pneumonia ATCC6303; conditions: organism code XX; BHI agar, 35-37° C., 20 to 24 hours; unit assumed
Method in brief: as §1

[18] = system: Streptococcus Pneumonia GYR 1171; conditions: organism code YY; BHI agar, 35-37° C., 20 to 24 hours; unit assumed
Method in brief: as §1

[19] = system: Streptococcus agalactiae CMX 508; conditions: organism code KK; BHI agar, 35-37° C., 20 to 24 hours; unit assumed
Method in brief: as §1

[20] = system: Streptococcus bovis A-5169; conditions: organism code JJ; BHI agar, 35-37° C., 20 to 24 hours; unit assumed
Method in brief: as §1

[21] = system: Streptococcus pyogenes 930; conditions: organism code MM; BHI agar, 35-37° C., 20 to 24 hours; unit assumed
Method in brief: as §1

[22] = system: Streptococcus pyogenes EES61; conditions: organism code LL; BHI agar, 35-37° C., 20 to 24 hours; unit assumed
Method in brief: as §1

[23] = system: Streptococcus pyogenes PIU 2548; conditions: organism code NN; BHI agar, 35-37° C., 20 to 24 hours; unit assumed
Method in brief: as §1

Row | SMILES | MIC (Candida albicans CCH 442) [µg/mL] | MIC [1] [µg/mL] | MIC (Escherichia coli DC-2) [µg/mL] | MIC (Escherichia coli JUHL) [µg/mL] | MIC (Escherichia coli SS) [µg/mL] | MIC [2] [µg/mL] | MIC [3] [µg/mL] | MIC [4] [µg/mL] | MIC [5] [µg/mL] | MIC [6] [µg/mL] | MIC [7] [µg/mL] | MIC [8] [µg/mL] | MIC [9] [µg/mL] | MIC [10] [µg/mL] | MIC [11] [µg/mL] | MIC [12] [µg/mL] | MIC [13] [µg/mL] | MIC [14] [µg/mL] | MIC [15] [µg/mL] | MIC [16] [µg/mL] | other results
1 | CC[C@H]1OC(=O)[C@H](C)C(=O)[C@H](C)[C@@H](O[C@@H]2O[C@H](C)C[C@H](N(C)C)[C@H]2O)[C@](C)(OC/C=C/c2ccc(-c3ccccn3)s2)C[C@@H](C)C(=O)[C@H](C)[C@H]2NC(=O)O[C@@]21C [Example 75] | > 100 | 0.05 (≈ 0.0627 µM) | 25 (≈ 31.3 µM) | 50 (≈ 62.7 µM) | 0.39 (≈ 0.489 µM) | 2 (≈ 2.51 µM) | 0.1 (≈ 0.125 µM) | 0.02 (≈ 0.0251 µM) | 1.56 (≈ 1.95 µM) | 0.02 (≈ 0.0251 µM) | > 100 | > 100 | 0.05 (≈ 0.0627 µM) | 0.05 (≈ 0.0627 µM) | 0.05 (≈ 0.0627 µM) | 0.05 (≈ 0.0627 µM) | 0.05 (≈ 0.0627 µM) | 0.05 (≈ 0.0627 µM) | 0.125 (≈ 0.157 µM) | 1 (≈ 1.25 µM) | MIC [17]: ≤ 0.004 µg/mL; MIC [18]: ≤ 0.004 µg/mL; MIC [19]: 0.02 µg/mL (≈ 0.0251 µM); MIC [20]: 0.01 µg/mL (≈ 0.0125 µM); MIC [21]: 12.5 µg/mL (≈ 15.7 µM); MIC [22]: 0.02 µg/mL (≈ 0.0251 µM); MIC [23]: 0.1 µg/mL (≈ 0.125 µM)
2 | CC[C@H]1OC(=O)[C@H](C)C(=O)[C@H](C)[C@@H](O[C@@H]2O[C@H](C)C[C@H](N(C)C)[C@H]2O)[C@](C)(OCC#Cc2ccc(-c3cncs3)s2)C[C@@H](C)C(=O)[C@H](C)[C@H]2NC(=O)O[C@@]21C [Example 29] | > 100 | 0.01 (≈ 0.0125 µM) | 50 (≈ 62.3 µM) | 25 (≈ 31.2 µM) | 0.1 (≈ 0.125 µM) | 2 (≈ 2.49 µM) | 0.05 (≈ 0.0623 µM) | ≤ 0.005 | 0.39 (≈ 0.486 µM) | ≤ 0.005 | > 100 | > 100 | 0.05 (≈ 0.0623 µM) | 0.05 (≈ 0.0623 µM) | 0.02 (≈ 0.0249 µM) | 0.05 (≈ 0.0623 µM) | 0.02 (≈ 0.0249 µM) | 0.05 (≈ 0.0623 µM) | 0.25 (≈ 0.312 µM) | 1 (≈ 1.25 µM) | MIC [17]: ≤ 0.004 µg/mL; MIC [18]: ≤ 0.004 µg/mL; MIC [19]: 0.01 µg/mL (≈ 0.0125 µM); MIC [20]: ≤ 0.005 µg/mL; MIC [21]: 3.1 µg/mL (≈ 3.87 µM); MIC [22]: 0.01 µg/mL (≈ 0.0125 µM); MIC [23]: 0.05 µg/mL (≈ 0.0623 µM)
3 | CC[C@H]1OC(=O)[C@H](C)C(=O)[C@H](C)[C@@H](O[C@@H]2O[C@H](C)C[C@H](N(C)C)[C@H]2O)[C@](C)(OC/C=C/c2cncc(-n3ccnc3)c2)C[C@@H](C)C(=O)[C@H](C)[C@H]2NC(=O)O[C@@]21C [Example 37] | > 100 | 0.05 (≈ 0.0639 µM) | 50 (≈ 63.9 µM) | 50 (≈ 63.9 µM) | 0.39 (≈ 0.499 µM) | 4 (≈ 5.12 µM) | 0.2 (≈ 0.256 µM) | 0.01 (≈ 0.0128 µM) | 3.1 (≈ 3.96 µM) | 0.1 (≈ 0.128 µM) | > 100 | > 100 | 0.1 (≈ 0.128 µM) | 0.1 (≈ 0.128 µM) | 0.1 (≈ 0.128 µM) | 0.1 (≈ 0.128 µM) | 0.2 (≈ 0.256 µM) | 0.1 (≈ 0.128 µM) | 2 (≈ 2.56 µM) | > 128 | MIC [17]: ≤ 0.004 µg/mL; MIC [18]: ≤ 0.004 µg/mL; MIC [19]: 0.02 µg/mL (≈ 0.0256 µM); MIC [20]: 0.01 µg/mL (≈ 0.0128 µM); MIC [21]: 25 µg/mL (≈ 32 µM); MIC [22]: 0.02 µg/mL (≈ 0.0256 µM); MIC [23]: 0.39 µg/mL (≈ 0.499 µM)
4 | CC[C@H]1OC(=O)[C@H](C)C(=O)[C@H](C)[C@@H](O[C@@H]2O[C@H](C)C[C@H](N(C)C)[C@H]2O)[C@](C)(OC/C=C/c2ccc(-c3nccs3)s2)C[C@@H](C)C(=O)[C@H](C)[C@H]2NC(=O)O[C@@]21C [Example 63] | > 100 | 0.05 (≈ 0.0622 µM) | 100 (≈ 124 µM) | 100 (≈ 124 µM) | 0.1 (≈ 0.124 µM) | 4 (≈ 4.97 µM) | 0.1 (≈ 0.124 µM) | 0.05 (≈ 0.0622 µM) | 0.39 (≈ 0.485 µM) | 0.05 (≈ 0.0622 µM) | > 100 | > 100 | 0.1 (≈ 0.124 µM) | 0.1 (≈ 0.124 µM) | 0.1 (≈ 0.124 µM) | 0.1 (≈ 0.124 µM) | 0.1 (≈ 0.124 µM) | 0.2 (≈ 0.249 µM) | 0.25 (≈ 0.311 µM) | 8 (≈ 9.95 µM) | MIC [17]: 0.008 µg/mL (≈ 0.00995 µM); MIC [18]: 0.008 µg/mL (≈ 0.00995 µM); MIC [19]: 0.05 µg/mL (≈ 0.0622 µM); MIC [20]: 0.05 µg/mL (≈ 0.0622 µM); MIC [21]: 6.2 µg/mL (≈ 7.71 µM); MIC [22]: 0.05 µg/mL (≈ 0.0622 µM); MIC [23]: 0.2 µg/mL (≈ 0.249 µM)
